Reference: patent US20110015410A1, “NOVEL USE OF SCOPARONE” (Kyungpook National University Industry Academic Cooperation …, priority 2007, published 2011)
Blank lines part the entries; values can stand above or below the molecule they belong to.

What was measured:
[1] = system: vascular smooth muscle cells; experiment: Proliferation of vascular smooth muscle cells on treatment with the AMPK inhibitor CompC; assay type: cell-based, Sprague-Dawley white rats; conditions: cells treated with CompC, described as an AMPK inhibitor
[2] = system: vascular smooth muscle cells; experiment: Inhibition of proliferation of vascular smooth muscle cells (WST cell counting); assay type: cell-based, Sprague-Dawley white rats; conditions: scoparone 0, 5, 10, 20 or 50 μM, 48 hours, absorbance at 450 nm
Method: Vascular smooth muscle cells were isolated from the thoracic aorta of Sprague-Dawley white rats and cultured in a medium containing 20% fetal bovine serum.
The specificity of vascular smooth muscle cells was confirmed by staining the cells with α-actin monoclonal antibody (Sigma, St Louis, Mo., USA). In this experiment, vascular smooth muscle cells subcultured 5-6 times were used. The cultured vascular smooth muscle cells were plated in a 60-mm tissue culture dish at a confluence of about 80-90%, and then cultured in 0.5% FBS DMEM medium for 24 hours to allow the cells to enter the stationary phase.
The primarily cultured vascular smooth muscle cells were cultured in a 96-well culture dish, and when the cells reached a confluence of 40%, the medium was replaced with 0.5% FBS-containing medium, and the cells were cultured for 24 hours to allow the cells to enter the stationary phase.

ACC = experiment: Phosphorylation of ACC in vascular smooth muscle cells (Western blot); assay type: cell-based, Sprague-Dawley white rats; conditions: 50 μg of scoparone for 1, 2, 4, 6 and 12 hr
Method: (§1) Cultured vascular smooth muscle cells were plated in a 60-mm tissue culture dish at a confluence of about 80-90%, and then cultured in 0.5% FBS-containing medium for 24 hours to allow the cells to enter the stationary phase. The cultured cells were divided into a control group not treated with scoparone, and five test groups which were treated with 50 μg of scoparone for 1 hr, 2 hr, 4 hr, 6 hr and 12 hr, respectively. From each of the groups, the total protein was isolated using RIPA buffer. Each of the isolated total proteins was boiled in buffer for 5 minutes, and then cooled on ice. Then, each total protein was separated according to size by electrophoresis on sodium dodecyl sulfate polyacrylamide. Then, each total protein was transferred to a PVDF membrane which was then allowed to react with monoclonal antibodies for pACC, pAMPK and AMPK to examine the expression and phosphorylation of the proteins.

[3] = high-cholesterol rabbit model; cited from earlier work
Erk = experiment: Phosphorylation of Erk in vascular smooth muscle cells (Western blot); assay type: cell-based, Sprague-Dawley white rats; conditions: 50 μg of scoparone for 15, 30, 45, 60 and 90 min
Method: (§2) In order to examine the signaling pathway of scoparone, the phosphorylation of JNK and Erk was examined.
(§3) Cultured vascular smooth muscle cells were plated in a 60-mm tissue culture dish at a confluence of 80-90%, and then cultured in 0.5% FBS-containing medium for 24 hours to allow the cells to enter the stationary phase. The cultured cells were divided into a control group not treated with scoparone, and five test groups which were treated with 50 μg of scoparone for 15 min, 30 min, 45 min, 60 min and 90 min, respectively. From each of the groups, the total protein was isolated using RIPA buffer. Each of the isolated total proteins was boiled in buffer for 5 minutes, and then cooled on ice. Then, each total protein was separated according to size by electrophoresis on sodium dodecyl sulfate polyacrylamide gel. Then, each total protein was transferred to a PVDF membrane which was then allowed to react with antibodies for pJNK, JNK, pErk and Erk to examine the expression and phosphorylation of the proteins.

cyclin D = experiment: Expression of cyclin D in vascular smooth muscle cells (Western blot); assay type: cell-based, Sprague-Dawley white rats; conditions: 50 μg of scoparone for 2, 4, 6, 12 and 24 hr
Method: (§4) Cultured vascular muscle cells were plated in a 60-mm tissue culture dish at a confluence of about 80-90%, and then cultured in 0.5% FBS containing medium for 24 hours to allow the cells to enter the stationary phase. The cultured cells were divided into a control group not treated with scoparone, and five test groups which were treated with 50 μg of scoparone for 2 hr, 4 hr, 6 hr, 12 hr and 24 hr, respectively. From each of the groups, the total protein was isolated using RIPA buffer. Each of the isolated total proteins was boiled in buffer for 5 minutes, and then cooled on ice. Then, each total protein was separated according to size by electrophoresis on sodium dodecyl sulfate polyacrylamide gel. Then, each total protein was transferred to a PVDF membrane which was then allowed to react with antibodies for p53, p27, p21 and Cyclin D to examine the expression of the proteins.

p21 = experiment: Expression of p21 in vascular smooth muscle cells (Western blot); assay type: cell-based, Sprague-Dawley white rats
Method: as §4

[4] = system: neointima formation in carotid artery; experiment: Formation of neointima after balloon dilatation (carotid artery, H&E staining); assay type: in vivo, Sprague-Dawley white rats; conditions: high-fat diet containing 10 mg/kg or 100 mg/kg of scoparone; 2 weeks after balloon dilatation; vs negative control group
Method: In order to examine whether scoparone inhibits the formation of neointima after balloon dilatation, an experiment was performed using Sprague-Dawley white rats fed with scoparone-containing feed.
As test subjects, male Sprague-Dawley white rats weighing about 300 g were used. The rats were grouped into a normal control group, a negative control group fed only with a high-fat diet (20% fat and 0.05% cholesterol) and a test group fed with a high-fat diet containing 10 mg/kg or 100 mg/kg of scoparone, each group consisting of 4 animals, and were kept at 22° C. under a 12-hr light/12-hr dark cycle. The negative control group and the test group were fed with the above-described diets from 3 days before performing balloon dilatation and were fed with the diets during 2 weeks after balloon dilatation. After 2 weeks, the carotid artery was isolated from the rats and stained with H&E (hematoxylin & eosin) in order to observe the formation of neointima. FIG. 2 is a micrograph (×100) showing the cross-section of the carotid artery of the rats 2 weeks after balloon dilatation.

NF-κB = experiment: DNA-binding activity of NF-κB (electrophoretic mobility shift assay); assay type: cell-based, Sprague-Dawley white rats; conditions: 10 ng TNF-α; scoparone 0, 10, 20, 50 and 100 μM; 24 hours; EMSA
Method: (§5) Proteins such as cell cycle regulatory proteins or chemokine are regulated by the respective transcription factors. Accordingly, the DNA-binding activities of AP-1 that is a transcription factor regulating the expression of cell cycle regulatory proteins, and NF-κB that is a transcription factor regulating the expression of chemokine were analyzed using an electrophoretic mobility shift assay (EMSA).
(§6) Vascular smooth muscle cells were cultured in 0.5% FBS-containing medium for 24 hours. The cultured cells were divided into a control group treated with neither scoparone nor tumor necrosis factor (TNF-α, and five test groups which were treated with media containing 10 ng of tumor necrosis factor (TNF-α) for 24 hours at scoparone concentrations of 0 μM, 10 μM, 20 μM, 50 μM and 100 μM, respectively. Nuclear extracts were isolated from the vascular smooth muscle cells and labeled with radioisotope-labeled probes for AP-1 and NF-κB. Then, the labeled extracts were subjected to a protein-DNA reaction at room temperature for 20 minutes. After completion of the reaction, each sample was loaded on a 4% native polyarylamide gel and electrophoresed at 150 volt for 2 hours, followed by analysis.

JNK = experiment: Phosphorylation of JNK in vascular smooth muscle cells (Western blot); assay type: cell-based, Sprague-Dawley white rats; conditions: 50 μg of scoparone for 15, 30, 45, 60 and 90 min
Method: as §2, §3

p27 = experiment: Expression of p27 in vascular smooth muscle cells (Western blot); assay type: cell-based, Sprague-Dawley white rats
Method: as §4

p53 = experiment: Expression of p53 in vascular smooth muscle cells (Western blot); assay type: cell-based, Sprague-Dawley white rats
Method: as §4

ROS = ROS production in vascular smooth muscle cells (DCF-DA fluorescence microscopy); assay type: cell-based, Sprague-Dawley white rats; conditions: TNF-α-containing media, scoparone 100 μM and 200 μM, 1 hour
Method: When vascular smooth muscle cells were grown to a confluence of about 90% in a 6-well cell culture dish, the cells were cultured in 0.5% FBS DMEM medium for 24 hours. The cultured cells were divided into a control group treated with neither tumor necrosis factor (TNF-α nor scoparone, and three test groups which were treated with scoparone in tumor necrosis factor (TNF-α)-containing media at scoparone concentrations of 0 μM, 100 μM and 200 μM, respectively. The cells of each group were incubated for 1 hour, and then 40 μmol/L of 2′,7′-dichlorofluorecin diacetate (DCF-DA; Invitrogen), a fluorescent probe sensitive to ROS, was added thereto, and the cells were incubated for 30 minutes. The production of ROS in the cells was analyzed using an AxioCam MRc5 Carl Zeiss fluorescence microscope (Thornwood, N.Y.) which was excited at a 488-nm wavelength and emitted at 515-nm wavelength.

[5] = system: human peripheral monocytes; conditions: cited from earlier work
AP-1 = experiment: DNA-binding activity of AP-1 (electrophoretic mobility shift assay); assay type: cell-based, Sprague-Dawley white rats; conditions: 10 ng TNF-α; scoparone 0, 10, 20, 50 and 100 μM; 24 hours; EMSA
Method: as §5, §6

VCAM-1 = experiment: Expression of VCAM-1 in vascular smooth muscle cells (Western blot); assay type: cell-based, Sprague-Dawley white rats; conditions: TNF-α-containing media; scoparone 0, 10, 20, 50 and 100 μM; 24 hours
Method: Cultured vascular smooth muscle cells were plated in a 60-mm tissue culture dish at a confluence of about 80-90%, and then cultured in 0.5% FBS-containing medium for 24 hours to allow the cells to enter the stationary phase. The cultured cells were divided into a control group treated with neither scoparone nor tumor necrosis factor (TNF-α, and five test groups which were treated with scoparone in tumor necrosis factor (TNF-α)-containing media for 24 hours at scoparone concentrations of 0 μM, 10 μM, 20 μM, 50 μM and 100 μM, respectively. In addition, the cells were divided into five groups which were treated with 50 μg of scoparone for 15 min, 30 min, 45 min, 60 min and 90 min, respectively. From each of the groups, the total protein was isolated using RIPA buffer. Each of the isolated total protein was boiled in buffer for 5 minutes, and then cooled on ice. Then, each total protein was separated according to size by electrophoresis on sodium dodecyl sulfate polyacrylamide gel. Then, each total protein was transferred to a PVDF membrane which was then allowed to react with antibodies for VCAM and PAI-1 to examine the expression of the proteins. The membrane was further allowed to react with anti-actin antibody to examine whether the antibody uses a given amount of the proteins.

AMPK = experiment: Phosphorylation of AMPK in vascular smooth muscle cells (Western blot); assay type: cell-based, Sprague-Dawley white rats; conditions: 50 μg of scoparone for 1, 2, 4, 6 and 12 hr
Method: as §1

[6] = 50 μg of scoparone for 2, 4, 6, 12 and 24 hr

Structure (SMILES): c1cc(-c2cnn3cc(-c4ccc(OCCN5CCCCC5)cc4)cnc23)ccn1 [CompC]
proliferation of the vascular smooth muscle cells [1]: restored again

DNA binding activity of NF-κB (NF-κB): concentration-dependently decreased
DNA binding activity of AP-1 (AP-1): concentration-dependently decreased
Structure (SMILES): COc1cc2ccc(=O)oc2cc1OC [scoparone, 6,7-dimethoxycoumarin]
proliferation of the vascular smooth muscle cells ([2]; with 10 ng/ml TNF-α): decreased in a dose-dependent manner
proliferation of the vascular smooth muscle cells ([2]; with 20 ng/ml PDGF): decreased in a dose-dependent manner
phosphorylation of ACC (ACC): time-dependently increased
cholesterol levels [3]: lowered
triglyceride levels [3]: lowered
time of highest phosphorylation of Erk after treatment (Erk): 45 min
expression level of cyclin D (cyclin D): decreased
time of highest expression level of p21 after treatment (p21; 50 μg of scoparone): 24 h
expression of p21 (p21; [6]): time-dependently increased
formation of neointima [4]: decreased compared to that in the negative control group
phosphorylation of JNK (JNK): gradually increased with the passage of time
time of highest expression level of p27 after treatment (p27; 50 μg of scoparone): 24 h
expression of p27 (p27; [6]): time-dependently increased
time of highest expression level of p53 after treatment (p53; 50 μg of scoparone): 2 to 4 h
expression of p53 (p53; [6]): time-dependently increased
expression of ROS (ROS): decreased
growth of human peripheral monocytes [5]: inhibits
expression of VCAM-1 (VCAM-1): dose-dependently decreased
phosphorylation of AMPK (AMPK): time-dependently increased
